Assay results published in patent US6172079A, “5-substituted-3-oxadiazolyl-1,6-naphthyridin-2(1H)-one derivatives” (Dainippon Pharmaceutical Co., Ltd., priority 1997, dated 2001).

Key:
GABAA receptor = conditions: background statement; cited from earlier work
[1] = tested on: GABAA receptor complex (TBPS binding); assay: TBPS Binding Assay; design: species or system Wistar rats; conditions: [35S]TBPS 0.4 nM, GABA 1 μM, rat cerebral cortex membrane, +% inverse agonistic, 0% antagonistic
Description: The TBPS (t-butylbicyclophosphonothionate) binding assay and the preparation of the membrane specimen were done in a similar manner to the method of Biggio, G. et al. [cf. European Journal of Pharmacology, vol.
That is, to the cerebral cortex was added a 50-fold volume of an ice-cooled buffer (a 50 mM Tris-citrate buffer containing 100 mM sodium chloride, pH 7.4) and the mixture was homogenized at 0-4° C. and then centrifuged at 20,000 g for 20 minutes. The pellets thus obtained were once subjected to homogenization in a buffer and centrifugation by the same procedure as above and then kept in freezed state at -80° C. for more than 20 hours. On the test day, the freezed pellets were thawed and then subjected twice to the homogenization-centrifugation procedure as described above.
Subsequently, the filter was moved into a liquid scintillation vial and thereto was added a liquid scintillation cocktail (ACS-II, manufactured by Amersham, USA, 10 ml) and allowed to stand for a fixed period of time. […] Separately, the same procedures were repeated in the presence of Picrotoxin to determine the non-specific binding amount. The non-specific binding amount was deducted from the total binding amount to give the specific binding amount. The binding activity of the test compound was calculated by a variation rate, i.e., a rate of the specific binding amount of the test compound to the specific binding amount in control (using a solvent).

benzodiazepine receptor = assay: Benzodiazepine Receptor Binding Assay; conditions: read-out: BZP-receptor Binding IC50; [3H]-diazepam 1.5 nM; rat brain crude synaptosome membrane; 0° C., 20 min
[2] = tested on: ddY male mice (pentylentetrazol-induced convulsion); assay: Test of Increasing Activity on Pentylentetrazol-induced Convulsion; type: in vivo; conditions: Mus musculus, 0.5 h, po, pentylentetrazol 70 mg/kg s.c. 15 min later, read-out: Effects (number of animals) with increased pentylentetrazol-induced convulsion (converted)
Description: It is known that benzodiazepine receptor inverse agonists increase convulsion induced by pentylentetrazol [cf. Progress in Neuro-Psychopharmacology and Biological Psychiatry, vol. […] Some compounds of the present invention were tested as to the activities of increasing the pentylentetrazol-induced convulsion.
A test compound (compounds disclosed in working examples) was orally administered to ddY male mice (weight; 22-25 g, five mice/group) in an amount of 5-100 mg/kg. […] The effects were evaluated by the number of mice among five mice, of which the convulsion increasing effects were observed.

Structure (SMILES)	TBPS binding Variation Rate [1]	IC50 (benzodiazepine receptor)	further results
CCc1c(C(=O)OC)ncc2[nH]c3cc(OC)c(OC)cc3c12 [DMCM, methyl-6,7-dimethoxy-4-ethyl-β-carboline-3-carboxylate]			uptake of Cl ion into cells (GABAA receptor): increased
Cc1nc(-c2cc3c(-c4ccccc4)nccc3[nH]c2=O)no1 [Example 4]	20%	1.65 nM	responders at 10 mg/kg [2]: 80%
Cc1nc(-c2cc3c(-c4cccc(F)c4)nccc3[nH]c2=O)no1 [Example 5]	21%	1.64 nM	responders at 5 mg/kg ([2]; 5 mg/kg): 100%
Cc1nc(-c2cc3c(-c4ccc(F)cc4)nccc3[nH]c2=O)no1 [Example 6]	15%	2.98 nM	responders at 100 mg/kg [2]: 80%
COc1ccc(-c2nccc3[nH]c(=O)c(-c4noc(C)n4)cc23)cc1 [Example 11, 3-(5-Methyl-1,2,4-oxadiazol-3-yl)-5-(4-methoxyphenyl)-1,6-naphthyridin-2(1H)-one]	21%	9.77 nM	responders at 10 mg/kg [2]: 80%
CCc1nc(-c2cc3c(C4CC4C)nccc3[nH]c2=O)no1 (stereo not drawn) [Example 18, 3-(5-Ethyl-1,2,4-oxadiazol-3-yl)-5-(2-methylcyclopropyl)-1,6-naphthyridin-2(1H)-one]	10%	2.04 nM	responders at 20 mg/kg [2]: 60%
COc1cccc(-c2nccc3[nH]c(=O)c(-c4noc(C)n4)cc23)c1 [Example 86, 3-(5-methyl-1,2,4-oxadiazol-3-yl)-5-(3-methoxyphenyl)-1,6-naphthyridin-2(1H)-one]	12%	2.21 nM	responders at 10 mg/kg [2]: 40%
Cc1nc(-c2cc3c(-c4ccccc4Cl)nccc3[nH]c2=O)no1 [Example 88]	41%	4.63 nM	responders at 10 mg/kg [2]: 100%
Cc1nc(-c2cc3c(-c4ccccc4C)nccc3[nH]c2=O)no1 [Example 89, 3-(5-Methyl-1,2,4-oxadiazol-3-yl)-5-(2-methylphenyl)-1,6-naphthyridin-2(1H)-one]	22%	10.5 nM	responders at 50 mg/kg [2]: 100%
Cc1nc(-c2cc3c(-c4ccncc4)nccc3[nH]c2=O)no1 [Example 94, 3-(5-Methyl-1,2,4-oxadiazol-3-yl)-5-(4-pyridyl)-1,6-naphthyridin-2(1H)-one]	34%	4.49 nM	responders at 50 mg/kg [2]: 80%
CCc1nc(-c2cc3c(-c4ccco4)nccc3[nH]c2=O)no1 [Example 102]	33%	0.81 nM	responders at 10 mg/kg [2]: 100%
CCc1nc(-c2cc3c(-c4cccs4)nccc3[nH]c2=O)no1 [Example 103, 3-(5-Ethyl-1,2,4-oxadiazol-3-yl)-5-(2-thienyl)-1,6-naphthyridin-2(1H)-one]	21%	0.83 nM	responders at 10 mg/kg [2]: 40%
CCc1nc(-c2cc3c(-c4ccsc4)nccc3[nH]c2=O)no1 [Example 105]	25%	1.08 nM	responders at 50 mg/kg [2]: 80%
CCc1noc(-c2cc3c(-c4cccs4)nccc3[nH]c2=O)n1 [Example 173, 3-(3-ethyl-1,2,4-oxadiazol-5-yl)-5-(2-thienyl)-1,6-naphthyridin-2(1H)-one]	18%	0.94 nM	responders at 20 mg/kg [2]: 100%
Cc1cccc(-c2nccc3[nH]c(=O)c(-c4nc(C)no4)cc23)c1 [Example 183, 3-(3-Methyl-1,2,4-oxadiazol-5-yl)-5-(3-methylphenyl)-1,6-naphthyridin-2(1H)-one]	8%	1.55 nM	responders at 20 mg/kg [2]: 80%
Cc1ccc(-c2nccc3[nH]c(=O)c(-c4nc(C)no4)cc23)cc1 [Example 184]	17%		responders at 50 mg/kg [2]: 100%
COc1cccc(-c2nccc3[nH]c(=O)c(-c4nc(C)no4)cc23)c1 [Example 186, 3-(3-Methyl-1,2,4-oxadiazol-5-yl)-5-(3-methoxyphenyl)-1,6-naphthyridin-2(1H)-one]	21%	1.55 nM	responders at 50 mg/kg [2]: 80%

Structure (SMILES)	TBPS binding Variation Rate [1]	IC50 (benzodiazepine receptor)	further results
CCc1noc(-c2cc3c(C)nccc3[nH]c2=O)n1 [Example 191, 3-(3-Ethyl-1,2,4-oxadiazol-5-yl)-5-methyl-1,6-naphthyridin-2(1H)-one]	18%		responders at 10 mg/kg [2]: 100%
CCCc1nccc2[nH]c(=O)c(-c3nc(CC)no3)cc12 [Example 192]	13%	4.22 nM	responders at 100 mg/kg [2]: 100%
CCc1noc(-c2cc3c(-c4cccc(F)c4)nccc3[nH]c2=O)n1 [Example 200, 3-(3-Ethyl-1,2,4-oxadiazol-5-yl)-5-(3-fluorophenyl)-1,6-naphthyridin-2(1H)-one]	17%	0.92 nM	responders at 50 mg/kg [2]: 80%
CCc1noc(-c2cc3c(-c4ccc(OC)cc4)nccc3[nH]c2=O)n1 [Example 210, 3-(3-Ethyl-1,2,4-oxadiazol-5-yl)-5-(4-methoxyphenyl)-1,6-naphthyridin-2(1H)-one]	15%	3.41 nM	responders at 10 mg/kg [2]: 80%
CCc1noc(-c2cc3c(-c4ccncc4)nccc3[nH]c2=O)n1 [Example 213, 3-(3-Ethyl-1,2,4-oxadiazol-5-yl)-5-(4-pyridyl)-1,6-naphthyridin-2(1H)-one]	26%	2.07 nM	responders at 10 mg/kg [2]: 100%
CCCc1noc(-c2cc3c(-c4ccco4)nccc3[nH]c2=O)n1 [Example 220]		0.93 nM	responders at 20 mg/kg [2]: 80%
CC(C)c1noc(-c2cc3c(-c4ccc(F)cc4)nccc3[nH]c2=O)n1 [Example 228]	-10%	1.59 nM	
CC(C)c1noc(-c2cc3c(-c4ccco4)nccc3[nH]c2=O)n1 [Example 229]	10%	1.12 nM	
CC(C)c1nccc2[nH]c(=O)c(-c3nc(C4CC4)no3)cc12 [Example 233]	31%	1.58 nM	
O=c1[nH]c2ccnc(-c3cccc(Cl)c3)c2cc1-c1nc(C2CC2)no1 [Example 240]	-13%	2.51 nM	
O=c1[nH]c2ccnc(-c3ccc(Cl)cc3)c2cc1-c1nc(C2CC2)no1 [Example 241]	-14%	6.08 nM	
Cc1ccc(-c2nccc3[nH]c(=O)c(-c4nc(C5CC5)no4)cc23)cc1 [Example 244]	-15%	4.12 nM	
O=c1[nH]c2ccnc(-c3ccco3)c2cc1-c1nc(C2CC2)no1 [Example 245]	13%	0.81 nM	
O=c1[nH]c2ccnc(-c3ccsc3)c2cc1-c1nc(C2CC2)no1 [Example 247, 3-(3-Cyclopropyl-1,2,4-oxadiazol-5-yl)-5-(3-thienyl)-1,6-naphthyridin-2(1H)-one]	16%	1.39 nM	responders at 50 mg/kg [2]: 80%
CNC(=O)c1cc2c(cn1)[nH]c1ccccc12 [FG7142, N-methyl-β-carboline-3-carboxamide]			uptake of Cl ion into cells (GABAA receptor): increased
NCc1cc(=O)[nH]o1 [Muscimol]			uptake of Cl ion into cells (GABAA receptor): decreased
O=C1CN=C(c2ccccc2Cl)c2cc([N+](=O)[O-])ccc2N1 [chlonazepam]			uptake of Cl ion into cells (GABAA receptor): decreased
